Structures can show the parent of a compound that is named as a salt.

This assay concerns the target T1, CA (Human immunodeficiency virus type 1 group M subtype B, UniProt P12493).
T1 construct: a fusion protein of CA with glutathione-S-transferase (CA-GST)
The experiment in a line: AlphaScreen: inhibition of CAI-biotin peptide binding to CA-GST. Further details: species or system HIV-1. As to conditions: inhibition of CAI binding to CA (CA-GST fusion); compounds screened at 0.5-100 µM; read-out: α screen IC50. As to the method: The AlphaScreen experiments are performed using Perkin Elmer Enspire plate reader in white 96-well ProxiPlates and PBS supplemented with 0.05% Tween20, 2mM DTT, 2% DMSO. First, Streptavidin-coated Donor beads are used to capture the CAI-biotin peptide. In the other solution, a fusion protein of CA with glutathione-S-transferase (CA-GST) is mixed with GSH Acceptor beads. Both mixtures were incubated and then mixed together. To test the ability of prepared organic compounds to inhibit the CAI binding to CA, they are screened at concentrations between 0.5-100 µM and IC50 values are calculated from the influenced signals.
Upon illumination by laser at 680 nm, Donor beads containing the photosensitizer phthalocyanine convert ambient oxygen to an excited form of singlet oxygen ^1O2. Singlet oxygen can within its half-life of ∼ 4µs diffuse approximately 200 nm in solution. If an Acceptor bead is within that proximity, which is mostly upon CA:CAI interaction, energy is transferred from the singlet oxygen to thioxene derivates within the Acceptor and signal at 520 - 620 nm is emitted. […] Table 4: Synthesized and tested compounds
`CC(=O)c1ccc(Nc2ccnc(-c3ccncc3)n2)cc1` [AMR-748, 1-(4-((2-(pyridin-4-yl)pyrimidin-4-yl)amino)phenyl)ethanone hydrochloride]: the IC50 is more than 100 µM.
With `Cc1cc(Nc2cc(C(=O)NCCF)ccc2F)nc(-c2cccnc2)n1` [AMR-832, 4-fluoro-N-(2-fluoroethyl)-3-((6-methyl-2-(pyrldin-3-yl)pyrimidin-4-yl)amino)benzamide hydrochloride], the IC50 is 52 µM.
In the case of `CCOC(=O)c1ccc(Nc2cc(C)nc(-c3cccnc3)n2)cc1` [AMR-778, ethyl 4-((6-methyl-2-pyridin-3-yl)pyrimidin-4-yl)amino)benzoate hydrochloride] it was 21 µM.
Regarding `Fc1ccc(Nc2cc(-c3cccnc3Cl)ncn2)cc1F` [KP-374, 6-(2-Chloropyridin-3-yl)-N-(3,4-difluorophenyl)pyrimidin-4-amine hydrochloride], the IC50 was more than 100 µM.
Turning to `CC(=O)c1ccc(Nc2cc(C(F)(F)F)nc(-c3cccnc3)n2)cc1` [AMR-743, 1-(4-((2-(pyridin-3-yl)-6-(trifluoromethyl)pyrimidin-4-yl)amino)phenyl)ethanone hydrochloride], the IC50 is more than 100 µM.
As to `CCOC(=O)c1ccc(Nc2cc(C(F)(F)F)nc(-c3cccnc3)n2)cc1` [AMR-742, ethyl 4-((2-(pyridin-3-yl)-6-(trifluoromethyl)pyrimidin-4-yl)amino)benzoate hydrochloride], the IC50 was more than 100 µM.
Regarding `CC(=O)c1ccc(Nc2cc(C)nc(-c3cccnc3)n2)cc1` [AMR-794, 1-(4-((6-methyl-2-(pyridin-3-yl)pyrimidin-4-yl)amino)phenyl)ethanone hydrochloride], the IC50 came to 12 µM.
Take `O=C(NCCF)c1ccc(Nc2ccnc(-c3cccnc3)n2)cc1` [AMR-792, N-(2-fluoroethyl)-4-((2-(pyridin-3-yl)pyrimidin-4-yl)amino)benzamide hydrochloride]: the IC50 is 34 µM.
On to `Cn1nnc2cc(Nc3ccnc(-c4cncc(Br)c4)n3)ccc21` [KP-364, N-[2-(5-bromopyridin-3-yl)pyrimidin-4-yl]-1-methyl-1H-benzotriazol-5-amine dihydrochloride], for which the IC50 worked out at 14 µM.
For `COc1cc(Nc2cc(-c3cccnc3Cl)ncn2)cc(OC)c1OC` [KP-377, 6-(2-Chloropyridin-3-yl)-N-(3,4,5-trimethoxyphenyl)pyrimidin-4-amine hydrochloride] the value was more than 100 µM; for `Fc1ccc(Nc2ccnc(-c3cncc(Br)c3)n2)cc1F` [KP-355, 2-(5-Bromopyridin-3-yl)-N-(3,4-difluorophenyl)pyrimidin-4-amine hydrochloride], more than 100 µM; for `CCOC(=O)c1ccccc1Nc1ccnc(-c2cccnc2)n1` [KP-347, Ethyl 2-{[2-(pyridm-3-yl)pyrimidm-4-yl]amino}benzoate hydrochloride], more than 100 µM.
Take `Cc1cc(Nc2ccc(C(=O)NCCF)c(F)c2)nc(-c2cccnc2)n1` [AMR-828, 2-fluoro-N-(2-fluoroethyl)-4-((6-methyl-2-(pyridin-3-yl)pyrimidin-4-yl)amino)benzamide hydrochloride]: the IC50 stood at 3 µM.
For `CC(=O)c1ccc(Nc2ccnc(-c3cccnc3)n2)cc1` [AMR-725, 1.-(4-((2-(pyridin-3-yl)pyrimidin-4-yl)amino)phenyl)ethanone hydrochloride] the value was 53 µM; for `CC(=O)c1ccc(F)c(Nc2cc(C)nc(-c3cccnc3)n2)c1` [AMR-838, 1-(4-fluoro-3-((6-methyl-2-(pyridin-3-yl)pyrimidin-4-yl)amino)phenyl)ethanone hydrochloride], more than 100 µM; for `CCOC(=O)c1ccc(Nc2ccnc(-c3cccnc3)n2)cc1Cl` [hydrochloride], 31 µM.
On to `CCOC(=O)c1ccc(Nc2ccnc(-c3cncc(Br)c3)n2)cc1` [KP-352, Ethyl 4-{[2-(5-bromopyridin-3-yl)pyrinudm-4-yl]amino}benzoate hydrochloride], for which the IC50 is more than 100 µM.
Take `CCOC(=O)c1ccc(Nc2ccnc(-c3ccncc3)n2)cc1` [AMR-747, ethyl 4-((2-(pyridin-4-yl)pyrimidin-4-yl)amino)benzoate hydrochloride]: the IC50 worked out at 28 µM.
For `O=C(NCCF)c1ccc(Nc2ccnc(-c3cccnc3)n2)c(F)c1` [AMR-825, 3-fluoro-N-(2-fluoroethyl)-4-((2-(pyridin-3-yl)pyrimidin-4-yl)amino)benzamide hydrochloride] the value was 73 µM; for `Cc1ccc(NC(=O)c2cccc(C(F)(F)F)c2)cc1Nc1ccnc(-c2cccnc2)n1` [KP-385, N-(3-(2-(pyridin-3-yl)pyritnidin-4-ylamino)-4-methylphenyl)-3-(trifluoromethyl)benzamide hydrochloride], more than 100 µM.
In the case of `O=C(O)c1ccc(Nc2ccnc(-c3cccnc3)n2)cc1Cl` [AMR-802, 2-chloro-4-((2-(pyridin-3-yl)pyrimidin-4-yl)amino)benzoic acid hydrochloride] it was 25 µM.
In the case of `CCOC(=O)c1cccc(Nc2ccnc(-c3ccncc3)n2)c1` [AMR-759, ethyl 3-((2-(pyridin-4-yl)pyrimidin-4-yl)amino)benzoate hydrochloride] it was more than 100 µM; in that of `O=C(NCCF)c1cc(Nc2ccnc(-c3cccnc3)n2)ccc1F` [AMR-816, 2-fluoro-N-(2-fluoroethyl)-5-((2-(pyridin-3-yl)pyrimidin-4-yl)amino)benzamide dihydrochloride], 68 µM.
Consider `FCCNc1ccnc(-c2ccncc2)n1` [AMR-758, N-(2-fluoroethyl)-2-(pyridin-4-yl)pyrimidin-4-amine hydrochloride], for which the IC50 is more than 100 µM.
`CC(=O)c1cc(Nc2cc(C)nc(-c3cccnc3)n2)ccc1F` [AMR-839, 1-(2-fluoro-5-((6-methyl-2-(pyridin-3-yl)pyrimidin-4-yl)amino)phenyl)ethanone hydrochloride]: the IC50 is 9 µM.
As to `CC(=O)c1cccc(Nc2ccnc(-c3cccnc3)n2)c1` [AMR-726, 1-(3-((2-(pyridin-3-yi)pyrimidin-4-yl)amino)phenyl)ethanone hydrochloride], the IC50 came to 39 µM.
For `Cc1cc(Nc2ccc(C(=O)NCCF)cc2)nc(-c2cccnc2)n1` [AMR-795, N-(2-fluoroethyl)-4-((6-methyl-2-(pyridin-3-yl)pyrimidin-4-yl)amino)benzamide hydrochloride] the value was 8 µM; for `Fc1cc(Nc2ccnc(-c3cncc(Br)c3)n2)cc(F)c1F` [KP-359, 2-(5-Bromopyridin-3-yl)-N-(3,4,5-trifluorophenyl)pyrimidin-4-amine hydrochloride], more than 100 µM.
With `Fc1ccc(Nc2ccnc(-c3cccnc3)n2)cc1F` [KP-343, N-(3,4-difluorophenyl)-2-(pyridin-3-yl)pyrimidin-4-amine dihydrochloride], the IC50 was 38 µM.
Turning to `Fc1cc(Nc2cc(-c3cccnc3Cl)ncn2)cc(F)c1F` [KP-373, 6-(2-Chloropyridin-3-yl)-N-(3,4,5-trifluorophenyl)pyrimidin-4-amine hydrochloride], the IC50 was more than 100 µM.
In the case of `CCN(CC)CCNC(=O)c1ccc(Nc2ccnc(-c3cccnc3)n2)cc1` [AMR-822, N-(2-(diethylamino)ethyl)-4-((2-(pyridin-3-yl)pyrimidin-4-yl)amino)benzamide dihydrochloride] it was more than 100 µM; in that of `CCOC(=O)c1ccc(Nc2ccnc(-c3cccnc3)n2)c(F)c1` [AMR-823, ethyl 3-fluoro-4-((2-(pyridin-3-yl)pyrimidin-4-yl)amino)benzoate hydrochloride], 30 µM.
In the case of `CC(=O)c1cccc(Nc2cc(C)nc(-c3cccnc3)n2)c1` [AMR-830, 1-(3-((6-methyl-2-(pyridin-3-yl)pyrimidin-4-yl)amino)phenyl)ethanone hydrochloride] it was 10 µM; in that of `O=C(NCC(F)(F)F)c1ccc(Nc2ccnc(-c3cccnc3)n2)cc1` [AMR-771, 4-((2-(pyridin-3-yl)pyrimidin-4-yl)amino)-N-(2,2,2-trifluoroethyl)benzamide hydrochloride], 55 µM.
In the case of `CCOC(=O)c1ccccc1Nc1ccnc(-c2cncc(Br)c2)n1` [KP-363, Ethyl 2-{[2-(5-bromopyridin-3-yl)pyrimidin-4-yl]amino}benzoate hydrochloride], the IC50 was found to be 58 µM.
For `Fc1cc(Nc2ccnc(-c3cccnc3)n2)cc(F)c1F` [KP-351, N-(3,4,5-trifluorophenyl)-2-(pyridin-3-yl)pyrimidin-4-amine dihydrochloride] the value was 60 µM; for `Cc1ccc(NC(=O)c2cccc(C(F)(F)F)c2)cc1Nc1cc(-c2cccnc2Cl)ncn1` [KP-380, N-(3-(6-(2-chloropyridin-3-yl)pyrimidin-4-ylamino)-4-methylphenyl)-3-(trifluoromethyl)benzamide hydrochloride], more than 100 µM; for `CCOC(=O)c1ccc(Nc2cc(-c3cccnc3Cl)ncn2)cc1` [KP-369, Ethyl 4-{[6-(2-chloropyridin-3-yl)pyrimidin-4-yl]amino}benzoate hydrochloride], more than 100 µM.
As for `Cn1nnc2cc(Nc3cc(-c4cccnc4Cl)ncn3)ccc21` [KP-375, N-[6-(2-Chloropyridin-3-yl)pyrimidin-4-yl]-1-methyl-1H-benzotriazol-5-amine hemihydrochloride], the IC50 is more than 100 µM.

The values above are taken from EP2769722A1 (Ruprecht-Karls-Universität Heidelberg, priority 2013, dated 2014).
